Drawing on patent publication US20230096766A1, “AMINO ACID HAVING FUNCTIONAL GROUP CAPABLE OF INTERMOLECULAR HYDROGEN BONDING, PEPTIDE COMPOUND CONTAINING SAME AND METHOD FOR PRODUCTION THEREOF” (Chugai Seiyaku Kabushiki Kaisha, priority 2018, published 2023), this text covers Papp for seven molecules.

By Papp is commonly meant the rate of passage across a membrane or cell layer, normalised by area and donor concentration.

Structures are written as SMILES. *1 amine or outer side, *2 acyl side, *3 side chain or, on linkers, in order; H or OH if unused. Where a SMILES comes first, the peptide text is derived from it. Bridges are numbered along the chain shown (N, C = ends). [ ]: non-standard residue; d: D form. The star is where a group is joined. hPhe(3-OMe,4-CONHMe) = CNC(=O)c1ccc(CC[C@H](N)C(=O)O)cc1OC; X12 = O=C([C@H](CCCC(O)C(F)(F)F)N[*:1])[*:2]; Hyp = O=C(O)[C@@H]1C[C@@H](O)CN1; NMeF = CN[C@@H](Cc1ccccc1)C(=O)O; NMeGABA = CN(CCCC(=O)[*:2])[*:1]; NMeI = CC[C@H](C)[C@H](NC)C(=O)O; CH2CH(OH)CF3 = OC(C*)C(F)(F)F; NMeL = CN[C@@H](CC(C)C)C(=O)O; Butyl(3R-OH) = C[C@@H](O)CC*; NMeV = CN[C@H](C(=O)O)C(C)C; NMeAbu = CC[C@H](NC)C(=O)O; NMeA = CN[C@@H](C)C(=O)O; Piperidide = C1CCN(*)CC1; NBuGly = CCCCNCC(=O)O; Ethyl(2-OH) = OCC*; Sar = CNCC(=O)O; tBu = CC(C)(C)*

The first data set can be described thus: in vitro. The settings on record: human, Caco-2, Caco-2 (cm/sec).
As for `CC(C)C[C@@H]1NC(=O)[C@H](CC(C)C)N(C)C(=O)[C@H](CC(C)C)N(C)C(=O)[C@H](COC(C)(C)C)NC(=O)[C@H](CC(C)C)N(C)C(=O)[C@@H](C(C)C)NC(=O)C[C@@H](C(=O)N2CCCCC2)NC(=O)[C@H](CC(C)C)N(C)C(=O)[C@H](Cc2ccccc2)NC(=O)[C@@H]2C[C@@H](OCCO)CN2C(=O)[C@H]([C@@H](C)O)NC1=O` [AP237] ([dV][NMeL]S(tBu)[NMeL][NMeL]LT[Hyp](Ethyl(2-OH))F[NMeL]D-Piperidide; lactam N-11), the Papp worked out at 1.3 ×10⁻⁶ cm/s. Take `CC[C@H](C)[C@H]1C(=O)N[C@@H](Cc2c[nH]c3ccccc23)C(=O)N(C)CC(=O)N(C)[C@@H](C)C(=O)N[C@H](C(=O)N2CCCCC2)CC(=O)N(C)[C@@H](C)C(=O)N[C@@H](CC(C)C)C(=O)N(C)[C@@H](CC(C)C)C(=O)N(C)[C@@H](CC(C)C)C(=O)N[C@@H](C)C(=O)N(C)[C@@H](CC(C)C)C(=O)N1C` [pd101] ([NMeA]L[NMeL][NMeL]A[NMeL][NMeI]W[Sar][NMeA]D-Piperidide; lactam N-11): the Papp worked out at 0.13 ×10⁻⁶ cm/s.

For the molecule `CC(C)C[C@@H]1NC(=O)[C@H](Cc2ccccc2)N(C)C(=O)[C@H](COC(C)(C)C)NC(=O)[C@H](Cc2ccccc2)N(C)C(=O)[C@H](C)N(C)C(=O)[C@H](CC(C)C)N(C)C(=O)[C@@H]2CCCN2C(=O)C[C@@H](C(=O)N2CCCCC2)NC(=O)[C@H](Cc2ccccc2)N(C)C(=O)[C@H]([C@@H](C)O)NC(=O)[C@H](CC(C)C)N(C)C1=O` [pd214] (P[NMeL][NMeA][NMeF]S(tBu)[NMeF]L[NMeL]T[NMeF]D-Piperidide; lactam N-11), the apparent permeability coefficient (Papp) was 1.2 ×10⁻⁶ cm/s.

`CC[C@H](C)[C@@H]1NC(=O)[C@H](CC(C)C)NC(=O)[C@H](CC(C)C)N(C)C(=O)[C@H](CC(C)C)NC(=O)C[C@@H](C(=O)N2CCCCC2)NC(=O)[C@H](CC(C)C)N(C)C(=O)[C@H]([C@@H](C)O)NC(=O)[C@H](CCc2ccc(C(=O)NC)c(OC)c2)NC(=O)[C@H](CC(C)C)N(C)C1=O` [AP263] (L[NMeL]LI[NMeL][hPhe(3-OMe,4-CONHMe)]T[NMeL]D-Piperidide; lactam N-9) returned a Papp of 1.8 ×10⁻⁶ cm/s.

In turn, `CCCCN1CC(=O)N(C)[C@@H](C(C)C)C(=O)N[C@@H](COC(C)(C)C)C(=O)N(C)[C@@H](Cc2ccccc2)C(=O)N(C)[C@@H](CC(C)C)C(=O)N[C@H](C(=O)N2CCCCC2)CC(=O)N[C@H](C(C)C)C(=O)N(C)[C@@H](Cc2ccccc2)C(=O)N[C@@H](COCC[C@@H](C)O)C(=O)N(C)[C@@H](CC(C)C)C(=O)N[C@@H]([C@@H](C)O)C1=O` [AP108] ([dV][NMeF]S(Butyl(3R-OH))[NMeL]T[NBuGly][NMeV]S(tBu)[NMeF][NMeL]D-Piperidide; lactam N-11) displayed an apparent permeability (Papp) of 0.81 ×10⁻⁶ cm/s.

Still in this data set, the particulars now being: human, Caco-2, Caco-2 (membrane permeability).
In turn, `CC(C)C[C@H]1C(=O)N[C@@H](C(C)C)C(=O)N(C)[C@@H](Cc2ccccc2)C(=O)N(C)[C@@H](Cc2ccccc2)C(=O)N[C@@H](COC(C)(C)C)C(=O)N(C)[C@@H](CC(C)C)C(=O)N[C@@H](COCC(O)C(F)(F)F)C(=O)N(C)[C@@H](CC(C)C)C(=O)N(C)[C@@H](CC(C)C)C(=O)N[C@H](C(=O)N2CCCCC2)CC(=O)N(C)CCCC(=O)N1C` (stereo partly drawn) [Compound C12] ([NMeGABA][NMeL]V[NMeF][NMeF]S(tBu)[NMeL]S(CH2CH(OH)CF3)[NMeL][NMeL]D-Piperidide; lactam N-11) returned a Papp of 0.23 ×10⁻⁶ cm/s.

For `CCCCN1CC(=O)N(C)[C@@H](Cc2ccccc2)C(=O)N(C)[C@@H](CC(C)C)C(=O)N[C@@H](COC(C)(C)C)C(=O)N(C)[C@@H](CC(C)C)C(=O)N[C@H](C(=O)N2CCCCC2)CC(=O)N(C)CC(=O)N(C)[C@@H](Cc2ccccc2)C(=O)N[C@@H](C(C)C)C(=O)N(C)[C@@H](CC)C(=O)N[C@@H](CCCC(O)C(F)(F)F)C1=O` (stereo partly drawn) [Compound D16] ([Sar][NMeF]V[NMeAbu][X12][NBuGly][NMeF][NMeL]S(tBu)[NMeL]D-Piperidide; lactam N-11), the Papp was found to be 0.51 ×10⁻⁶ cm/s.
